Here are results for two compounds from US10285944B2 (ALFASIGMA S.P.A., priority 2005, dated 2019).

The subject of data set [1] is patients affected by Crohn's disease. Put plainly: Clinical multi-center randomised trial versus placebo in Crohn's disease. It is filed as in vivo, human. The following applies: 27 patients. An excerpt:
55 Crohn's disease patients in acute, mild to moderate grade, phase, having CDAI (Crohn Disease Active Index) value between 200 and 300, have been recruited. The primary end point was represented by the percentage of the patients in clinic remission defined as CDAI lower than 150 points at the end of the study. The patients, randomised in two groups: group A, of 27 patients and group B of 28 patients, have been treated for 12 weeks according to the following therapeutic schemes:
Group B: placebo, administrated 2 times in a day in a such quantity to correspond to the content of the dose of the active principle.

Data set [2] has as its system Crohn's patients characterized by a protein C reactive value higher than normal. Put plainly: Crohn's patients with protein C reactive value higher than normal (subgroup of the trial). Format: in vivo, human. To be noted: subgroup with protein C value higher than normal values; 16 patients treated with rifaximin.
The conditions of data set [3]: depending on the dose and the treatment duration; cited from earlier work.
[4] abbreviates: CDAI lower than 150 after 12 weeks, rifaximin 800 mg 2 times a day (preparation of example 3).

For the compound `CO[C@H]1/C=C/O[C@@]2(C)Oc3c(C)c(O)c4c(O)c(c5c(nc6cc(C)ccn65)c4c3C2=O)NC(=O)/C(C)=C\C=C\[C@H](C)[C@H](O)[C@@H](C)[C@@H](O)[C@@H](C)[C@H](OC(C)=O)[C@@H]1C` [rifaximin], the “therapeutic failure, percentage of the patients” value is “(3.4%)” in data set [1] (12 weeks, rifaximin 800 mg 2 times a day) and “(0%)” in data set [2]. Besides, the entries for the “Number of clinical remission” value in data set [1] (setting [4]) and in data set [2] were 14 and 10, respectively. The “clinical remission, percentage of the patients” value in data set [1] (setting [4]) is “(51.9%)”; in data set [2], “(62.5%)”.
In the case of `Cc1ncc([N+](=O)[O-])n1CCO` [metronidazole], the “incidence of side effects” value in data set [3] was 10-20%.
